The values that follow come from patent US11180516B2, “Phosphine transition metal complex, method for producing same, and anticancer agent” (Nippon Chemical Industrial Co., Ltd., priority 2018, dated 2021).

Data set [1] deals with A2780 (human ovarian cancer cells). The data set can be described thus: Anticancer activity, WST-8 viable cell assay, A2780. The note with it: 48 hours culture, mean of three experiments, read-out: IC50 (50% cell growth inhibitory concentration). It counts as cell-based. How it is done: (§1) As a control, cisplatin was tested in the same way.
(§2) A549 (human lung cancer cells), NCI-H460 (human lung cancer cells), MKN45 (human gastric cancer cells), NCI-N87 (human gastric cancer cells), A2780 (human ovarian cancer cells), A2780cis (human ovarian cancer cells, cisplatin-resistant cells) were used as cancer cells, and cultured in Roswell Park Memorial Institute medium (RPMI1640) supplemented with 10 volume % fetal bovine serum and 100 Units/mL penicillin and 100 μg/mL streptomycin under 5 volume % carbon dioxide atmosphere by wet incubation at 37° C.
(§3) Cells were washed with phosphate buffered saline (PBS), the cell count was calculated, and then 5×10^4 cells/ml suspension was prepared using the same medium. The suspension was added to a sterile 96-well microplate at a density of 2500 cells/well.
(§4) Thereafter, viable cell counts were evaluated by WST-8 assay. In other words, a solution of water-soluble tetrazolium salt WST-8 was added, and then the cells were cultured in an incubator for 1 hour. Absorbance at 450 nm of water-soluble formazan generated by enzymatic activity of mitochondria in cells was measured with a microplate reader (Spectra Max PLUS; Molecular Devices). This was evaluated as viable cell counts, and 50% cell growth inhibitory concentration (IC50) was calculated. It should be noted that the mean of the values of three experiments performed in the same way was adopted for the calculation of IC50 value.

In data set [2] the test system is A549 (human lung cancer cells). The data set can be described thus: Anticancer activity, WST-8 viable cell assay, A549. The note with it: 48 hours culture, mean of three experiments, read-out: IC50 (50% cell growth inhibitory concentration). It counts as cell-based. How it is done: as §1, §2, §3, §4
In data set [3] the test system is NCI-H460 (human lung cancer cells). In words: Anticancer activity, WST-8 viable cell assay, NCI-H460. It counts as cell-based. The conditions noted are these: 48 hours culture, mean of three experiments, read-out: IC50 (50% cell growth inhibitory concentration). On the procedure: as §1, §2, §3, §4
In data set [4] the test system is MKN45 (human gastric cancer cells). In words: Anticancer activity, WST-8 viable cell assay, MKN45. It is filed as cell-based. The conditions noted are these: 48 hours culture, mean of three experiments, read-out: IC50 (50% cell growth inhibitory concentration). On the procedure: as §1, §2, §3, §4
Data set [5] relates to NCI-N87 (human gastric cancer cells). In words: Anticancer activity, WST-8 viable cell assay, NCI-N87. It is filed as cell-based. The conditions noted are these: 48 hours culture, mean of three experiments, read-out: IC50 (50% cell growth inhibitory concentration). How it is done:
as §1, §2, §3, §4

The subject of data set [6] is A2780cis (human ovarian cancer cells, cisplatin-resistant cells). The data set can be described thus: Anticancer activity, WST-8 viable cell assay, A2780cis. It counts as cell-based. The note with it: 48 hours culture, mean of three experiments, read-out: IC50 (50% cell growth inhibitory concentration). On the procedure: as §1, §2, §3, §4
Data set [7] is described as follows: Solubility test in aqueous surfactant solution (HPLC). The conditions noted are these: 150 μL surfactant (Tween 80:propylene glycol 2:1) + 850 μL 5% by mass aqueous glucose solution.
Procedure: The solubility was determined by the following HPLC analysis.
For the HPLC analyzer, Prominence HPLC system (LC-20AD, Shimadzu Corporation) was used. For the detector, UV detector SPD-20A (Shimadzu Corporation, detection wavelength 249 nm) was used, and for the column, XR-ODS (3 mm i.d.×100 mm, particle diameter 2.2 μm) manufactured by Shimadzu Corporation was used. The mobile phase was methanol:water:TFA=90:10:0.05 (v/v), the column temperature was 40° C., and the flow rate was 0.5 mL/min.
Each of the weighed samples was placed in 150 μL of surfactants, and the mixture was stirred sufficiently. Then, 850 μL of 5% by mass aqueous glucose solution was added, and the mixture was further stirred at room temperature (25° C.). This solution was passed through a 0.2 μm membrane filter, and the filtrate was diluted 50-fold by volume with methanol:water (9:1) to obtain a preparation solution for HPLC analysis.
The prepared samples were transferred to vials, and set in an autosampler. The analysis was performed by injecting each sample by 1 μL.
Based on the relationship between the weight of the weighed sample and the area of the peak in the obtained chromatogram, the solubility of the phosphine transition metal complex was evaluated.

With `N.N.[Cl][Pt][Cl]` [Cisplatin, cisplatin, reference compound], the IC50 was 2800 nM in data set [1]; 6000 nM in data set [2]; 3300 nM in data set [3]; 5200 nM in data set [4]; 42000 nM in data set [5]; 28000 nM in data set [6].

Regarding `CP(c1nc2ccccc2nc1P(C)C(C)(C)C)C(C)(C)C.CP(c1nc2ccccc2nc1P(C)C(C)(C)C)C(C)(C)C.[Au+].[Cl-]` (stereo not shown) [Comparative Example 1, bis(2,3-bis(tert-butylmethylphosphino)quinoxaline)gold(I) chloride], the “Solubility (25° C.)” value in data set [7] is 25.5 mg/mL.

As for `CP(c1ccccc1P(C)C(C)(C)C)C(C)(C)C.CP(c1ccccc1P(C)C(C)(C)C)C(C)(C)C.[Au+].[Cl-]` [Example 2, bis[(S,S)-1,2-bis(t-butylmethylphosphino)benzene]gold(I) chloride], the IC50 was 1100 nM in data set [1]; 580 nM in data set [2]; 690 nM in data set [3]; 530 nM in data set [4]; 2100 nM in data set [5]; 560 nM in data set [6].

Consider “bis[(R,R)-1,2-bis(t-butylmethylphosphino)benzene]gold(I) chloride [Example 1]”, for which the IC50 in data set [1] turned out to be 280 nM; in data set [2], 66 nM; in data set [3], 250 nM; in data set [4] it was 250 nM; in data set [5], 1400 nM; in data set [6], 95 nM.
